According to article PMC3382171 (PLoS ONE, 2012):

Assays:
Assay in all cases: biochemical
Conditions in all cases: read-out: Dundee KSS % inhibition at 1uM
CAMKKB = target: T1, CAMKKB (Homo sapiens, UniProt Q96RR4)
T1 construct: gene CAMKK2
Experimental: (§1) The METi and RAFi were screened against kinase panels (SelectScreen, Invitrogen; University of Dundee, Division of Signal Transduction Therapy, UK; Upstate Biotechnology/Millipore, Billerica, MA). In these selectivity assays the concentration of ATP was set to the Km value of ATP for each kinase tested to allow for a relative potency comparison between the various kinases. The compounds were tested at 1 µM final concentration. […] (A) Kinase selectivity screen (KSS) performed at Upstate Biotechnology. […] (B) KSS performed at University of Dundee (Division of Signal Transduction Therapy). […] (PDF) Click here for additional data file.

MAPKAP-K1b = target: T2, MAPKAP-K1b (Homo sapiens, UniProt P51812)
T2 construct: gene RPS6KA3
Experimental: as §1

deltaPH-PKBbeta = target: T3, deltaPH-PKBbeta (Homo sapiens, UniProt P31751)
T3 construct: gene AKT2; delta PH
Experimental: as §1

AuroraB = target: T4, AuroraB (Homo sapiens, UniProt Q96GD4)
T4 construct: gene AURKB
Experimental: as §1

CAMKKa = target: T5, CAMKKa (Homo sapiens, UniProt Q8N5S9)
T5 construct: gene CAMKK1
Experimental: as §1

MKK1 = target: T6, MKK1 (Homo sapiens, UniProt Q02750)
T6 construct: gene MAP2K1
Experimental: as §1

MSK1 = target: T7, MSK1 (Homo sapiens, UniProt O75582)
T7 construct: gene RPS6KA5
Experimental: as §1

deltaPH-PKBalpha = target: T8, deltaPH-PKBalpha (Homo sapiens, UniProt P31749)
T8 construct: gene AKT1; delta PH
Experimental: as §1

SAPK2A/p38 = target: T9, SAPK2A/p38 (Homo sapiens, UniProt Q16539)
T9 construct: gene MAPK14
Experimental: as §1

SAPK4/p38d = target: T10, SAPK4/p38d (Homo sapiens, UniProt O15264)
T10 construct: gene MAPK13
Experimental: as §1

PIM1 = PIM1 (Homo sapiens, UniProt P11309)
Experimental: as §1

CAMK-1 = target: T11, CAMK-1 (Homo sapiens, UniProt Q14012)
T11 construct: gene CAMK1
Experimental: as §1

DYRK2 = target: T12, DYRK2 (Homo sapiens, UniProt Q92630)
T12 sequence (Q92630 1-601): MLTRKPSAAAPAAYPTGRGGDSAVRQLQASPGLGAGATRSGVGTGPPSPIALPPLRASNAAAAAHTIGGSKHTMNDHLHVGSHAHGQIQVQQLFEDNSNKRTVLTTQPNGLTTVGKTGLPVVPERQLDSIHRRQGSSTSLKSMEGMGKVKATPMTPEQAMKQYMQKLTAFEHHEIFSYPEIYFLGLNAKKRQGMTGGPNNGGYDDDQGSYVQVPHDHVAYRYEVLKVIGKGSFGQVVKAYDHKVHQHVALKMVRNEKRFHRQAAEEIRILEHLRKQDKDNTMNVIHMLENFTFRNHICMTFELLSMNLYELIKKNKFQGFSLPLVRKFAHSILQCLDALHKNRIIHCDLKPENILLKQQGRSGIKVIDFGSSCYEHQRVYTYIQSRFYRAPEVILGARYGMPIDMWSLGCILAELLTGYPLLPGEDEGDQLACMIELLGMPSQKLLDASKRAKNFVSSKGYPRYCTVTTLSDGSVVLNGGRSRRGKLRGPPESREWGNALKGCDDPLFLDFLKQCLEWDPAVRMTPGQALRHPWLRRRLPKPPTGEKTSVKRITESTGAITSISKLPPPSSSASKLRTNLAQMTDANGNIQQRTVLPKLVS
Experimental: as §1

chicken SRC = chicken SRC (Gallus gallus, UniProt P00523)
Experimental: as §1

JNK2 = target: T13, JNK2 (Homo sapiens, UniProt P45984)
T13 construct: gene MAPK9
Experimental: as §1

CHK1 = target: T14, CHK1 (Homo sapiens, UniProt O14757)
T14 construct: gene CHEK1
Experimental: as §1

PRK2 = target: T15, PRK2 (Homo sapiens, UniProt Q16513)
T15 construct: gene PKN2
Experimental: as §1

MNK2 = target: T16, MNK2 (Homo sapiens, UniProt Q9HBH9)
T16 construct: gene MKNK2
Experimental: as §1

PRAK = target: T17, PRAK (Homo sapiens, UniProt Q8IW41)
T17 construct: gene MAPKAPK5
Experimental: as §1

JNK/SAPK1c = target: T18, JNK/SAPK1c (Homo sapiens, UniProt P45983)
T18 construct: gene MAPK8
Experimental: as §1

PIM3 = PIM3 (Homo sapiens, UniProt Q86V86)
Experimental: as §1

PKCalpha = target: T19, PKCalpha (Homo sapiens, UniProt P17252)
T19 construct: gene PRKCA
Experimental: as §1

SAPK3/p38g = target: T20, SAPK3/p38g (Homo sapiens, UniProt P53778)
T20 construct: gene MAPK12
Experimental: as §1

CSK = CSK (Homo sapiens, UniProt P41240)
Experimental: as §1

NEK2a = target: T21, NEK2a (Homo sapiens, UniProt P51955)
T21 construct: gene NEK2; isoform A
Experimental: as §1

CDK2/CyclinA = CDK2/CyclinA (Homo sapiens, UniProt P24941)
Experimental: as §1

T3 sequence (P31751 whole entry): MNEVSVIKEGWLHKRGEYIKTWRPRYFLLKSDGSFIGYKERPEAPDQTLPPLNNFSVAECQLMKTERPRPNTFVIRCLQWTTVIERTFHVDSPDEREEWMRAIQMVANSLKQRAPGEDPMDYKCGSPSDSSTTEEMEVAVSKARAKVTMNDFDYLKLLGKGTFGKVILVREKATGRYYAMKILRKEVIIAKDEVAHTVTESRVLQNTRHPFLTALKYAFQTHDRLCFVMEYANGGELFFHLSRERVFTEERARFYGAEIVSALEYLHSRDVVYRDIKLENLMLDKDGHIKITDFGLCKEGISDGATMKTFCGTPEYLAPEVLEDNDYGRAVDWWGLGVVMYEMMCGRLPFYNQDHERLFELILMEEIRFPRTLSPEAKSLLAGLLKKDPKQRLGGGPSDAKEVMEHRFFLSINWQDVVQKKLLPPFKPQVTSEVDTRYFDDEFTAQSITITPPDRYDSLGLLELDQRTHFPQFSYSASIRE
T4 sequence (Q96GD4 whole entry): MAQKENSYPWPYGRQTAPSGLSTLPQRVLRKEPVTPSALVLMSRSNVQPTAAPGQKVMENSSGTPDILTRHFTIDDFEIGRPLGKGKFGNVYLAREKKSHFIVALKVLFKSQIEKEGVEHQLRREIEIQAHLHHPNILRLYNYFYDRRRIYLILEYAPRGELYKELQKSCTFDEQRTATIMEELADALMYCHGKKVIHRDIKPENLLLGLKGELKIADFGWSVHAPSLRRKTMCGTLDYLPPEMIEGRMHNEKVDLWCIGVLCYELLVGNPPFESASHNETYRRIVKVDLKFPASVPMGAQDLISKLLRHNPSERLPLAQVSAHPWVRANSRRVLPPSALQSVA
Sequence of PIM1 (P11309 whole entry): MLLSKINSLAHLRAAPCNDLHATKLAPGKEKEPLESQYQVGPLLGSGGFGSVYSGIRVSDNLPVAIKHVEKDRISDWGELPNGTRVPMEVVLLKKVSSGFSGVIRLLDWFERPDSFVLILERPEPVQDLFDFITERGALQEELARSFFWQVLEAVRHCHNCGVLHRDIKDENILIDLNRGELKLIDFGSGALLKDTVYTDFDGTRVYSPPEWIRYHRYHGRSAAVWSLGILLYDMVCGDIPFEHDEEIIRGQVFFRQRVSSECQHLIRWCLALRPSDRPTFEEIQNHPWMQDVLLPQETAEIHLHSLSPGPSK
T15 sequence (Q16513 whole entry): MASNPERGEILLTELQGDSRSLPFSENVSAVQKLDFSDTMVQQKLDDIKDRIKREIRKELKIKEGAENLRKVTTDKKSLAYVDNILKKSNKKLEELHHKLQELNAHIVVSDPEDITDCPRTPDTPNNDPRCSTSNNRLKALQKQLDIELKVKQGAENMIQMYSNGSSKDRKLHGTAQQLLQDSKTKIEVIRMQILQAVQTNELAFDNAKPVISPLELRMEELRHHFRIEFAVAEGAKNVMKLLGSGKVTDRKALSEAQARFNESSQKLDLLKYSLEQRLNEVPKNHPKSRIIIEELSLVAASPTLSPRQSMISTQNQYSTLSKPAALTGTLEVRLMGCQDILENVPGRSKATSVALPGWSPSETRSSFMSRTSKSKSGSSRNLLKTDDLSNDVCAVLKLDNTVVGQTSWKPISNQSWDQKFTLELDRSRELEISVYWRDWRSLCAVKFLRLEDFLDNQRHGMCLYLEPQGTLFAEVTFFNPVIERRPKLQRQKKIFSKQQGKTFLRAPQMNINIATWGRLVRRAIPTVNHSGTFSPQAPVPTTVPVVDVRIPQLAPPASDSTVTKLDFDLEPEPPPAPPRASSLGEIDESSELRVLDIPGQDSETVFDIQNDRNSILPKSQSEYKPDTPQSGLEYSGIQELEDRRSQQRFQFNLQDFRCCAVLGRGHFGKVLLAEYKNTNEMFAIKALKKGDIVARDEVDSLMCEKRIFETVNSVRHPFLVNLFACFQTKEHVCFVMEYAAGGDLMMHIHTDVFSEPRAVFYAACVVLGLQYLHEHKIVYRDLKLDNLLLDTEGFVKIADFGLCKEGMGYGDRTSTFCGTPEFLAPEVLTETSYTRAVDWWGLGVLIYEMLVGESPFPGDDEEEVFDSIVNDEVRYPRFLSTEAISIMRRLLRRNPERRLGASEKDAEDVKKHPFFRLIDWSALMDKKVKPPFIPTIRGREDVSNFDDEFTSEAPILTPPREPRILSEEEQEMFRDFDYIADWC
T9 sequence (Q16539 whole entry): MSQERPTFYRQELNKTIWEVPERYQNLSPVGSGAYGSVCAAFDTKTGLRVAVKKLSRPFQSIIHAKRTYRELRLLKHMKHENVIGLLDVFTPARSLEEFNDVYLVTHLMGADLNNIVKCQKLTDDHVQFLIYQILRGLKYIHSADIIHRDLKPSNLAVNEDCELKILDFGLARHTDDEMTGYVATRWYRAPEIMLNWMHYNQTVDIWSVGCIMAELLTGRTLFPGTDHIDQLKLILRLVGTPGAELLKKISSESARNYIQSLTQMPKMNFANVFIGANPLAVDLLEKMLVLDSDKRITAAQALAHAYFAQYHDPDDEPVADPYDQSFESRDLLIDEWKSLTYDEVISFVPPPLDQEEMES
T16 sequence (Q9HBH9 whole entry): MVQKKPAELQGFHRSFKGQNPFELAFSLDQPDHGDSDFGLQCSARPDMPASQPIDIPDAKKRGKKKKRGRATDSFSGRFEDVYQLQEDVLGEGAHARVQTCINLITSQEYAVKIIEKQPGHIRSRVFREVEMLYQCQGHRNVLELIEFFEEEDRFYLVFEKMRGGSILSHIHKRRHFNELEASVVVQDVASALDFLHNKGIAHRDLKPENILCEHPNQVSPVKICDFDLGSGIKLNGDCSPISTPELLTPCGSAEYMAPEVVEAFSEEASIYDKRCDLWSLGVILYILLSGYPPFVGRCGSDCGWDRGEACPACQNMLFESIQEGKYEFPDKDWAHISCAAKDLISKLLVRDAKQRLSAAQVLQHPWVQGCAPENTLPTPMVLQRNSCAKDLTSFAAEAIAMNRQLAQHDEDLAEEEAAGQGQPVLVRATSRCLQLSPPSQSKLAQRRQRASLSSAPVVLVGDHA
T1 sequence (Q96RR4 whole entry): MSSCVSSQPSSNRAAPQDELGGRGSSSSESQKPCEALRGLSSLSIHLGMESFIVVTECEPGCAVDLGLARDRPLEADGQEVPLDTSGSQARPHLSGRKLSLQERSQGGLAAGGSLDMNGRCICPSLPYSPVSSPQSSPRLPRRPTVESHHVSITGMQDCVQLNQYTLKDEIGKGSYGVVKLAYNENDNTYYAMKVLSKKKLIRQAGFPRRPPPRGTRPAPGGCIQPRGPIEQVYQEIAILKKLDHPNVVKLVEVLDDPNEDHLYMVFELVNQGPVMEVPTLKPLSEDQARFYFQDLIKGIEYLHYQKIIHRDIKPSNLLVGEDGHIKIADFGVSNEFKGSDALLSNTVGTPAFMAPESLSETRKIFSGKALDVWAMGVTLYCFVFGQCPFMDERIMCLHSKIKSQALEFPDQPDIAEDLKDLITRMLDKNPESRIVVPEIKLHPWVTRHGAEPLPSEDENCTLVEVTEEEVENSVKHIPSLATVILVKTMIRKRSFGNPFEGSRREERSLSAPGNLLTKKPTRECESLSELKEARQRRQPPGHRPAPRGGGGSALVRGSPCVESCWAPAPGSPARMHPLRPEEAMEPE
T5 sequence (Q8N5S9 whole entry): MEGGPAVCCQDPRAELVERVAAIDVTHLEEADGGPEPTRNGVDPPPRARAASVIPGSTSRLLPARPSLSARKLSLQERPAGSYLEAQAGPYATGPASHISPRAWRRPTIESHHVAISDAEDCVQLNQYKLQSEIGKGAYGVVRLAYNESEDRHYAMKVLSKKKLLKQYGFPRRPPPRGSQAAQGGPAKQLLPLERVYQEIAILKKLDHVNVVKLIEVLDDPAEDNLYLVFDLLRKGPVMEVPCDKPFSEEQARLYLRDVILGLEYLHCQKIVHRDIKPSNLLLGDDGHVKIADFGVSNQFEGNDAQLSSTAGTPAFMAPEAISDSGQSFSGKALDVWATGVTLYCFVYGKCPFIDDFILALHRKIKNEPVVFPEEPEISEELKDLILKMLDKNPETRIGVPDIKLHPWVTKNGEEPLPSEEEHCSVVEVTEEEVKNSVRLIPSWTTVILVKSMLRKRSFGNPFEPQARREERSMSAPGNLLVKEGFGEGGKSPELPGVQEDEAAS
T8 sequence (P31749 whole entry): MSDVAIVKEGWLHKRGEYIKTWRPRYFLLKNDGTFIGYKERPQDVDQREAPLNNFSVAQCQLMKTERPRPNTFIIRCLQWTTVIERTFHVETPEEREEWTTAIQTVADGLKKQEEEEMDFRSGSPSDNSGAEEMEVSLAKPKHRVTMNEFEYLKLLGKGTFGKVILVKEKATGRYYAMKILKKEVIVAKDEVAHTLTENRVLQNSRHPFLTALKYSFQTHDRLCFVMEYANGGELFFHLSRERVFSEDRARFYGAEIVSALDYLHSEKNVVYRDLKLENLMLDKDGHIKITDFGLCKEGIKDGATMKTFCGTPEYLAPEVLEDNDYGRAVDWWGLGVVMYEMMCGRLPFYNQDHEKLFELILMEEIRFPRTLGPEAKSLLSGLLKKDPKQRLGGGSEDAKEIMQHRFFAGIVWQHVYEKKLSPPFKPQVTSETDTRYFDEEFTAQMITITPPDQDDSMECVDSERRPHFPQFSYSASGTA

inhibition at 1 µM (CAMKKB): 16.2%
inhibition at 1 µM (MAPKAP-K1b): 24.9%
inhibition at 1 µM (deltaPH-PKBbeta): 8.16%
inhibition at 1 µM (AuroraB): 11.2%
inhibition at 1 µM (CAMKKa): 8.9%
inhibition at 1 µM (MKK1): 25.2%
inhibition at 1 µM (MSK1): 5.55%
inhibition at 1 µM (deltaPH-PKBalpha): 3.5%
inhibition at 1 µM (SAPK2A/p38): 2.86%
inhibition at 1 µM (SAPK4/p38d): 4.67%
inhibition at 1 µM (PIM1): 4.46%
inhibition at 1 µM (CAMK-1): 12.8%
inhibition at 1 µM (DYRK2): 14.8%
inhibition at 1 µM (chicken SRC): -11.5%
inhibition at 1 µM (JNK2): 14.9%
inhibition at 1 µM (CHK1): -1.96%
inhibition at 1 µM (PRK2): 11.7%
inhibition at 1 µM (MNK2): 13.4%
inhibition at 1 µM (PRAK): 4.01%
inhibition at 1 µM (JNK/SAPK1c): 4.04%
inhibition at 1 µM (PIM3): 10.7%
inhibition at 1 µM (PKCalpha): 14.3%
inhibition at 1 µM (SAPK3/p38g): 3.7%
inhibition at 1 µM (CSK): 5.77%
inhibition at 1 µM (NEK2a): -7.91%
inhibition at 1 µM (CDK2/CyclinA): 2.24%
SMILES: OCCn1cc(-c2cnc3nnn(Cc4ccc5ncccc5c4)c3n2)cn1 [METi, PF-04217903]
